Assay results: patent EP0450066B1, “CARBOSTYRIL DERIVATIVES” (OTSUKA PHARMACEUTICAL CO., LTD., priority 1988, dated 1989)
Counter-ions that a name gives are not always drawn. Like-named read-outs stand apart in the source and are kept apart here.

What was measured:
[1] = tested on: platelets; assay: Platelet aggregation inhibitory activity (method by Born et al., platelet rich plasma, ADP or collagen as inducer); format: cell-based; settings: rabbit PRP, 400,000 platelets/µl, 37°C
Method: This sample was subjected to centrifugation at 1,100 rpm for 10 minutes to obtain a platelet rich plasma (PRP). The remaining sample was subjected to further centrifugation at 3,000 rpm for 15 minutes to obtain a platelet poor plasma (PPP).
The number of platelets in the PRP obtained above was counted by coulter Counter manufactured by Coulter Electronics Inc. Then, the PRP was diluted with the PPP so that the number of platelets in the PRP after dilution became 400,000 platelets/µl, whereby a PRP solution was prepared.
There were placed in a cell for aggregation determination, 2 µl of a solution containing a test compound at a given concentration and 200 µl of the PRP solution prepared above. The cell was heated at 37°C for 1 minute. Then, to the cell contents was added 20 µl of adenosine diphosphate (ADP, manufactured by Sigma Co.) or 20 µl of a collagen suspension (Collagen Reagent Horm, manufactured by Hormon-Chemie Co.) to induce aggregation of platelets. Then, the platelet aggregation was determined for change in transmittance, and a platelet aggregation curve was drawn.
The mixture aggregation rate (MAR) of platelets was calculated from the platelet aggregation curve, using the following formula.
In the above, MAR was calculated also for a control containing no test compound. Using this MAR as a base, the platelet aggregation inhibitions rate (%) of each test compound at various concentrations were calculated from the following formula. Inhibition rate (%) = [1-(MAR of test compound-containing PRP)/(MAR of test compound-free PRP)] x100 [formula]

[2] = tested on: mongrel dogs; assay: Increase in heart rate in anesthetized mongrel dogs; format: in vivo; settings: mongrel dogs under pentobarbital sodium anesthesia, artificial breathing; 30 µg/kg through cannula in femoral artery
Method: Increase in heart rate as well as hypotensive activity of test compounds were measured as follows by using mongrel dogs (body weight = 10-20 kg). That is, mongrel dogs were put under anesthesia by intravenous administration of pentobarbital sodium, then fixed at the back position, and subjected to testing under artificial breathing condition. Blood pressure was measured by using a blood pressure transducer (P23XL, manufactured by Gould Statham Instruments, Inc.) via a cannula inserted into the femoral artery of the mongrel dog. Heart rate was measured via a tachometer, based on the pulse wave of the blood pressure. These signals were recorded on a thermal-pen type recorder (Recti-Horiz 8K, manufactured by Nihon Denki San-ei).
The test compounds mentioned in the Pharmacological Test I were also used as test compounds in this Test-II. Each of them was dissolved in a mixed solution of N,N'-dimenthylformamide and a physiological saline solution, and each resulting solution was administered to the test dogs through the cannulas inserted into their femoral arteries, in an amount of 30 µg (test compound)/kg of body weight. The heart rate of each dog after the administration of test compound was measured as mentioned above, whereby the maximum increase in heart rate was obtained.

[3] = Oryctolagus cuniculus, Platelet, aggregation induced by ADP, final concentration 7.5 µM, read-out: IC50 (µM) ADP
[4] = Oryctolagus cuniculus, Platelet, aggregation induced by collagen, final concentration 20 µg/ml, read-out: IC50 (µM) Collagen
[5] = aggregation induced by ADP, final concentration 7.5 µM, read-out: IC50 (µM) ADP
[6] = aggregation induced by collagen, final concentration 20 µg/ml, read-out: IC50 (µM) Collagen

Compound: CSCCC(CO)N(CC1CCCCC1)C(=O)CCCCOc1ccc2[nH]c(=O)ccc2c1 (stereo not drawn) [Example 46]
- IC50 [1, 3]: 1.1 µM
- IC50 [1, 4]: 0.53 µM

Compound: C=CCN(CC)CCN(CC1CCCCCCC1)C(=O)CCCCOc1ccc2[nH]c(=O)ccc2c1 [Example 26]
- IC50 [1, 3]: 3.6 µM
- IC50 [1, 4]: 1.3 µM

Compound: O=C(CCCCOc1ccc2[nH]c(=O)ccc2c1)N(CCN1CCC(O)CC1)CC1CCCCCCC1 [Test compound 8, 6-[4-{N-cyclooctylmethyl-N-[2-(4-hydroxy-1-piperidinyl)ethyl]aminocarbonyl}butoxy]carbostyril]
- IC50 [1, 3]: 1.7 µM
- IC50 [1, 4]: 0.7 µM

Compound: CCN(CC)C[C@H](CO)N(CC1CCCCCCC1)C(=O)CCCCOc1ccc2[nH]c(=O)ccc2c1 [Example 22]
- IC50 [1, 3]: 1.2 µM
- IC50 [1, 4]: 0.8 µM

Compound: O=C(CCCCOc1ccc2[nH]c(=O)ccc2c1)N(CCN1CCCCC1CO)CC1CCCCCCC1 (stereo not drawn) [Example 4]
- IC50 [1, 5]: 2.7 µM
- IC50 [1, 6]: 1.6 µM
- Maximum increase in heart rate (beats/min) (Administration amount = 30 µg/kg) [2]: 6 beats/min

Compound: CC(=O)NCCN(CC1CCCCCCC1)C(=O)CCCCOc1ccc2[nH]c(=O)ccc2c1 [Test compound 24, 6-{4-[N-cyclooctylmethyl-N-(2-acetylaminoethyl)-aminocarbonyl]butoxy}carbostyril]
- IC50 ([1]; aggregation induced by ADP, final concentration 7.5 µM, listed as 42, read-out: IC50 (µM) ADP): 1.9 µM
- IC50 ([1]; aggregation induced by collagen, final concentration 20 µg/ml, listed as 42, read-out: IC50 (µM) Collagen): 1.6 µM

Compound: CCN(CC)CCCN(CC1CCCCCCC1)C(=O)CCCCOc1ccc2[nH]c(=O)ccc2c1 [Test compound 17, 6-{4-[N-cyclooctylmethyl-N-(3-diethylaminopropyl)-aminocarbonyl]butoxy}carbostyril oxalate]
- IC50 ([1]; aggregation induced by ADP, final concentration 7.5 µM, listed as 28, oxalate, read-out: IC50 (µM) ADP): 2.8 µM
- IC50 ([1]; aggregation induced by collagen, final concentration 20 µg/ml, listed as 28, oxalate, read-out: IC50 (µM) Collagen): 1.2 µM

Compound: CCN(CC)CCN(CC1CCCCCCC1)C(=O)CCCCOc1ccc2[nH]c(=O)ccc2c1 [Example 16]
- IC50 [1, 3]: 3 µM
- IC50 [1, 4]: 1.1 µM
- Maximum increase in heart rate (beats/min) (Administration amount = 30 µg/kg) [2]: 7 beats/min

Compound: 6-[4-(N-cyclooctylmethyl-N-diethylamidomethyl)-aminocarbonyl]butoxy}carbostyril [Test compound 19]
- IC50 [1, 5]: 2.1 µM
- IC50 [1, 6]: 1.3 µM

Compound: CCN(CC)C[C@H](C)N(CC1CCCCCCC1)C(=O)CCCCOc1ccc2[nH]c(=O)ccc2c1 [Example 21]
- IC50 [1, 3]: 5.4 µM
- IC50 [1, 4]: 3.2 µM
- Maximum increase in heart rate (beats/min) (Administration amount = 30 µg/kg) [2]: 7 beats/min

Compound: O=C(CCCCOc1ccc2[nH]c(=O)ccc2c1)N(CCn1ccnc1)CC1CCCCC1 [Example 12]
- IC50 [1, 5]: 6 µM
- IC50 [1, 6]: 3.2 µM
- Maximum increase in heart rate (beats/min) (Administration amount = 30 µg/kg) [2]: 12 beats/min

Compound: O=C(CCCCOc1ccc2[nH]c(=O)ccc2c1)N(CCN1CCC(O)C1)CC1CCCCCCC1.O=C(O)C(=O)O (stereo not drawn) [Example 6]
- IC50 [1, 5]: 3.5 µM
- IC50 [1, 6]: 1.3 µM
- Maximum increase in heart rate (beats/min) (Administration amount = 30 µg/kg) [2]: 5 beats/min

Compound: 6-[4-{N-cyclohexylmethyl-N-[2-(1-pyrrolidinyl)-ethyl]aminocarbonyl}butoxy]carbostyril [Example 1]
- IC50 [1, 5]: 3.4 µM
- IC50 [1, 6]: 1.1 µM

Compound: O=C(CCCCOc1ccc2[nH]c(=O)ccc2c1)N(CCN1CCC(O)C1)CC1CCCCCCC1 (stereo not drawn) [Test compound 6, 6-[4-{N-cyclooctylmethyl-N-[2-(3-hydroxy-1-pyrrolidinyl)ethyl]aminocarbonyl}butoxy]carbostyril oxalate]
- IC50 [1, 3]: 1.7 µM
- IC50 [1, 4]: 0.5 µM

Compound: CSCCC(COC(C)=O)N(CC1CCCCC1)C(=O)CCCCOc1ccc2[nH]c(=O)ccc2c1 (stereo not drawn) [Example 47]
- IC50 [1, 3]: 0.63 µM
- IC50 [1, 4]: 0.49 µM

Compound: CCN(CCO)CCN(CC1CCCCCCC1)C(=O)CCCCOc1ccc2[nH]c(=O)ccc2c1 [Example 25]
- IC50 [1, 3]: 2.1 µM
- IC50 [1, 4]: 1.4 µM

Compound: CC1CCCC(C)N1CCN(CC1CCCCCCC1)C(=O)CCCCOc1ccc2[nH]c(=O)ccc2c1 (stereo not drawn) [Example 9]
- IC50 [1, 5]: 4.5 µM
- IC50 [1, 6]: 1.6 µM
- Maximum increase in heart rate (beats/min) (Administration amount = 30 µg/kg) [2]: 0 beats/min

Compound: O=C(CCCCOc1ccc2[nH]c(=O)ccc2c1)N(CCS)CC1CCCCC1 [Example 44]
- IC50 [1, 3]: 5 µM
- IC50 [1, 4]: 3.6 µM
- Maximum increase in heart rate (beats/min) (Administration amount = 30 µg/kg) [2]: 11 beats/min

Compound: O=C(CCCCOc1ccc2[nH]c(=O)ccc2c1)N(CCN1CCOCC1)CC1CCCCCCC1 [Example 7]
- IC50 [1, 5]: 1.5 µM
- IC50 [1, 6]: 0.65 µM

Compound: CCN(CC)CCN(CC1CCCCCCC1)C(=O)CCCCOc1ccc2c(c1)CCC(=O)N2 [Example 20]
- IC50 [1, 5]: 21.2 µM
- IC50 [1, 6]: 7 µM
- Maximum increase in heart rate (beats/min) (Administration amount = 30 µg/kg) [2]: 4 beats/min

Compound: CCN(CC)CCCCN(CC1CCCCCCC1)C(=O)CCCCOc1ccc2[nH]c(=O)ccc2c1 [Example 18]
- IC50 [1, 3]: 6 µM
- IC50 [1, 4]: 4.8 µM
- Maximum increase in heart rate (beats/min) (Administration amount = 30 µg/kg) [2]: 5 beats/min

Compound: CCN(CC)C(=O)CN(CC1CCCCCCC1)C(=O)CCCCOc1ccc2[nH]c(=O)ccc2c1 [Example 19]
- IC50 [1, 3]: 1.5 µM
- IC50 [1, 4]: 0.71 µM

Compound: O=C(CCCCOc1ccc2[nH]c(=O)ccc2c1)N(CCSC1CCCCO1)CC1CCCCC1 (stereo not drawn) [Example 45]
- IC50 [1, 3]: 2.2 µM
- IC50 [1, 4]: 2.2 µM

Compound: CCN(CC)CCCN(CC1CCCCCCC1)C(=O)CCCCOc1ccc2[nH]c(=O)ccc2c1 [Example 17]
- IC50 [1, 3]: 5 µM
- IC50 [1, 6]: 2.8 µM

Compound: CCN(CC)CCCCN(CC1CCCCCCC1)C(=O)CCCCOc1ccc2[nH]c(=O)ccc2c1.O=C(O)C(=O)O [Test compound 18, 6-{4-[N-cyclooctylmethyl-N-(4-diethylaminobutyl)-aminocarbonyl]butoxy}carbostyril oxalate]
- IC50 ([1]; aggregation induced by ADP, final concentration 7.5 µM, listed as 29, oxalate, read-out: IC50 (µM) ADP): 8.3 µM
- IC50 ([1]; aggregation induced by collagen, final concentration 20 µg/ml, listed as 29, oxalate, read-out: IC50 (µM) Collagen): 3.7 µM
- Maximum increase in heart rate (beats/min) (Administration amount = 30 µg/kg) [2]: 2 beats/min

Compound: CCN(CC)CCN(CC1CCCCCCC1)C(=O)CCCCOc1ccc2c(c1)CCC(=O)N2 [Test compound 20, 6-{4-[N-cyclooctylmethyl-N-(2-diethylaminoethyl)-aminocarbonyl]butoxy}3,4-dihydrocarbostyril oxalate]
- IC50 ([1]; aggregation induced by ADP, final concentration 7.5 µM, listed as 34, oxalate, read-out: IC50 (µM) ADP): 0.84 µM
- IC50 ([1]; aggregation induced by collagen, final concentration 20 µg/ml, listed as 34, oxalate, read-out: IC50 (µM) Collagen): 0.48 µM

Compound: CC(=O)NCCN(CC1CCCCCCC1)C(=O)CCCCOc1ccc2[nH]c(=O)ccc2c1 [Example 24]
- IC50 [1, 3]: 2.2 µM
- IC50 [1, 4]: 1.3 µM

Compound: 6-[4-{N-cyclooctylmethyl-N-[2-(2β-dimethylamino-methyl-1-pyrrolidinyl)ethyl]aminocarbonyl}butoxy]-carbostyril difumarate [Test compound 10]
- IC50 [1, 5]: 3.9 µM
- IC50 [1, 6]: 1.8 µM
